According to patent US20100178316A1, “EXTENDED RELEASE OF BIOACTIVE MOLECULES FROM SILICONE HYDROGELS” (priority 2007, published 2010):

Columns and labels:
Type in all cases: physicochemical
[1] = Packaging test: drug lost from drug-loaded silicone hydrogel to PBS packaging solution; details: 0.1 mm thick GEL1, 1.75 cm diameter, loaded from drug-ethanol solution
Protocol: (§1) Commercial contact lenses are typically packaged in about 1-1.5 ml of packaging solution such as PBS. To estimate the effects of packaging on drug release behavior of silicone hydrogel appliances, packaging tests were conducted. A 0.1 mm thick silicone hydrogel was cut into circular pieces of 1.75 cm diameter and a drug was loaded by soaking the silicone hydrogel in a drug-ethanol solution. A 0.1 mm thick piece of GEL1 was loaded with a drug by soaking in drug-ethanol solution of 6.4 mg/ml for timolol and 4.8 mg/ml for DXA. The GEL1 pieces were then blotted with wipes to remove excess drug-ethanol solution from the pieces. The pieces were dried in air overnight before conducting the packaging tests. The silicone hydrogels were then stored in 1 ml of PBS (packaging) solution in a sealed vials for 1.3 or 2 months, and subsequently the appliance was placed in 2 ml of fresh PBS solution. The release of the drug over time is plotted in FIG. 17 and FIG. 18 for timolol and DXA, respectively. For timolol, about 364 μg and 404 μg of drug were lost to the packaging solution for the appliance stored for 1.3 months and 2 months, respectively. The residual drug released into the fresh PBS solution at an average rate of 0.09 mg/(g of gel·day) for 20 days, and then at a lower rate for another 2 months as shown in FIG. 17. […]

[2] = Drug release into fresh PBS solution after packaging storage; details: 2 ml fresh PBS
Protocol: as §1

[3] = Drug release experiments from ethanol-loaded silicone hydrogel pieces soaked in PBS; details: GEL1 to GEL4, 0.1-0.4 mm thick, loaded from 0.64 or 6.4 mg/mL ethanol solution
Protocol: Drugs were individually loaded into individual square pieces of the gels by soaking a gel in 2 or 2.5 mL of a drug-ethanol solution for a period of 3 hours. At the end of three hours the gel was taken out and excess drug-ethanol solution was blotted from the surface of the piece with wipes. The gels were dried in air overnight, and subsequently used for drug release experiments. Results of drug release experiment are given below for three drugs (dexamethasone (DX), dexamethasone acetate (DXA) and timolol) which were individually loaded into different gel pieces.
Drug release experiments were conducted by soaking the square shaped drug containing gel pieces, prepared as described in Example 1, in Dulbecco's phosphate buffered saline (PBS). The volume of the PBS was varied depending on the thickness of the gel to maintain a constant volume ratio of gel to PBS for all samples. The gels of 0.1 mm, 0.2 mm, and 0.4 mm thickness were soaked in 1.5 mL, 3 mL, 6 mL of PBS, respectively.
In like manner to Examples 1, 2 and 3, timolol release experiments were conducted with square pieces of the gels of three different thicknesses for the four different compositions prepared in Example 1 (GEL1 to GEL4), with two different drug loadings by varying the concentration of the drug-ethanol solution used. […]

## CC(C)(C)NC[C@H](O)COc1nsnc1N1CCOCC1 [timolol]
[1]; stored in 1 ml PBS for 1.3 months
  drug lost to the packaging solution: about 364 μg
[1]; stored in 1 ml PBS for 2 months
  drug lost to the packaging solution: ~404 µg
[2]; 0.1 mm thick GEL1 after packaging, after the first 20 days
  further release at a lower rate, duration: 2 months
[2]; 0.1 mm thick GEL1 loaded from 6.4 mg/ml ethanol solution, after packaging, for 20 days
  average release rate of residual drug into fresh PBS solution: 0.09 mg/(g of gel·day)
[3]
  initial burst release (in words): initial burst is small in each system
  release behaviour from gels into PBS (in words): all gels release timolol over a long period of time
